# “And” between values parts separate entries of the source, which are not always exact repeats. Equal entries are not always repeated.
# What was measured:
# [1] = test system: genes related to lipogenesis; test: RT-PCR gene expression in hepatic tissues; format: in vivo, mice; details: PD vs HFD
# Description: (§1) 1 mL of TRIzol solution was added per 0.1 g of adipose tissues of internal organs and hepatic tissues, and tissues were crushed and centrifuged at 4° C. and 12,000×g for 10 minutes. The supernatant was placed in a new tube, and 200 μL of chloroform was added followed by stirring. After repeating this procedure twice, the supernatant was placed in a new tube, and isopropanol and the supernatant were added at a ratio of 1:1. After strongly shaking for 10 times, the mixture was placed at room temperature for 10 minutes, centrifuged at 4° C. and 12,000×g for 10 minutes to remove the supernatant, and 1 mL of 70% ethanol was added to the precipitate to be centrifuged at 4° C. and 7,500×g for 5 minutes. After removing ethanol, the tube containing RNA precipitate was dried at room temperature for 5 minutes, and RNA pellet was dissolved using nuclease free water. By a using UV/VIS spectrophotometer (Beckman coulter, DU730, U.S.), the concentrations of RNA samples extracted at wavelengths of 260 nm and 280 nm were measured, and by carrying out agarose gel electrophoresis, the integrity of RNA samples was determined.
# (§2) For RNA samples extracted from adipose tissues of internal organs and hepatic tissues, oligo dT primers and superscript reverse transcriptase (GIBCO BRL, U.S.) were used to carry out reverse transcription to synthesize cDNA. By using the cDNA obtained by reverse transcription as a […] and using a 5′ and 3′ flanking sequence of the cDNA of the gene to be amplified as a primer, PCR was carried out, and at this time, the sequences of the used primers are shown in Table 2. 1 μL of the amplified PCR product was subject to electrophoresis on a 1% agarose gel to check for DNA bands.
# AMPK = test: Western blot of p-AMPK/AMPK in hepatic tissues; format: in vivo, mice; details: PD vs HFD
# Description: (§3) A predetermined amount of visceral fat or hepatic tissues was homogenized with liquid nitrogen and a lysis buffer solution in a mortar and centrifuged at 13,000×g and 4° C. for 20 minutes, and the middle layer was obtained to quantify proteins according to the Bradford method. 50 μg of the protein was subject to electrophoresis on an SDS polyacrylamide gel, was subject to electroblotting on a PVDF hyper film, and was reacted with the corresponding antibody, β-catenin, phospho-AMPK (AMP-activated protein kinase), AMPK, GAPDH (Cell-Signaling Technology, U.S.), respectively. The signal of each protein was visualized by a chemiluminescent detection system (Amersham, U.K.), and the thickness of bands was quantified by using the Quantity One Analysis Software (Bio-Rad Laboratories, U.S.).
# Dietary Obese Mice [2] = test: Body weight gain, diet intake and food efficiency ratio in high fat diet-fed mice; format: in vivo; details: 10 weeks
# Description: (§4) As a control drug, metformin (Met) or sibutramine (Sibu) which is an anti-obesity drug was added at a concentration of about 0.01% to HFD and used (Table 1). For a normal diet (chow) group, a commercially available rodent chow was fed. Pinocarveol, metformin, and sibutramine were all purchased from Sigma-Aldrich Company (U.S.).
# (§5) 5-week-old male C57BL/6J mice (Orient, Korea) were adjusted to a laboratory condition with solid feed for one week and randomly assigned to a high fat diet control group and experimental groups according to the randomized block method, followed by raising for ten weeks. Diet was supplied with water between 10 and 11 a.m. every day, intake amounts of diet was measured every day, and weight was measured every week. In order to prevent sudden weight changes due to feed intake, feed containers were removed, and weight was measured after 2 hours. Experimental animals were fasted for 12 hours or longer and anaesthetized by diethyl ether, and blood, liver, adipose tissues of internal organs (epididymal fat, fat around the kidney, mesenteric fat, and retroperitoneal fat) were collected, washed with 0.1M phosphate buffer solution (pH 7.4), and measured for weight. Blood collected from abdominal aorta was centrifuged at 1,000×g for 15 minutes to separate blood plasma.
# Dietary Obese Mice [3] = test: Visceral fat weight in high fat diet-fed mice; format: in vivo; details: 10 weeks
# Description: as §4, §5
# After feeding the experimental diets for 10 weeks, each of epididymal fat, fat around the kidney, mesenteric fat, and retroperitoneal fat, which compose visceral fat, was extracted to measure the weight thereof.
# [4] = cited from earlier work
# Dietary Obese Mice [5] = test: Liver weight and lipid concentration of hepatic tissue (Folch extraction); format: in vivo; details: PD vs HFD group, 10 weeks
# Description: as §4, §5
# Lipid components of hepatic tissues were collected as follows according to the method by Folch, et al. (Folch J, Lees M, Sloane Stanley G H. A simple method for the isolation and purification of total lipids from animal tissues. J Bio Chem. 1957; 226: 497-509). 1 mL of distilled water was applied to a hepatic tissue (0.25 g) and homogenized by using a Polytron homogenizer (IKA-WERKE GmbH & Co., Ultra-Turrax, Staufen, Germany). 5 mL of a chloroform:methanol solution (2:1, v/v) was added to the homogeneous solution, mixed well and centrifuged at 1,000×g for 10 minutes to separate a lower phase. 2 mL of a chloroform:methanol solution (2:1, v/v) was added to an upper phase again, and after repeating the same procedure, lipid components of the liver were completely separated. 3 mL of a chloroform:methanol:0.05% CaCl2) (3:48:47, v/v/v) solution was added to the lower phase thus obtained, mixed for 1 minute, and centrifuged at 1,000×g for 10 minutes. After obtaining the final lower phase and completely drying with nitrogen gas, the dried lipids were dissolved in 1 mL of methanol to use for lipid component analysis.
# The concentrations of neutral fat, cholesterol, and free fatty acids of the lipid extracts of hepatic tissues were measured by using the same commercially available measurement kit (Bio Clinical System, Korea) as previously used for the analysis of plasma lipid concentration.
# [6] = test system: genes related to thermogenesis and adipogenesis; test: RT-PCR gene expression in adipose tissues of internal organs; format: in vivo, mice; details: PD vs HFD
# Description: as §1, §2
# Dietary Obese Mice [7] = test: Oral glucose tolerance test; format: in vivo; details: PD vs HFD group, at 8 weeks, d-glucose 2 g/kg oral
# Description: An obesity inducing diet used in the present invention included a high fat control diet (HFD: 40% fat calorie, 17 g lard, and 3% corn oil/100 g diet), and a pinocarveol-supplemented high fat diet (PD) supplemented with pinocarveol (80,613, Sigma-Aldrich Company, CAS Number: 547-61-5, (1S,3R,5S)-6,6-dimethyl-2-methylenebicyclo[3,1,1]heptan-3-ol) has the same composition as HFD, but about 0.2% of pinocarveol was added. As a control drug, metformin (Met) or sibutramine (Sibu) which is an anti-obesity drug was added at a concentration of about 0.01% to HFD and used (Table 1). For a normal diet (chow) group, a commercially available rodent chow was fed. Pinocarveol, metformin, and sibutramine were all purchased from Sigma-Aldrich Company (U.S.).
# At 8 weeks of experimental raising, experimental animals were fasted for 16 hours and orally administered with d-glucose corresponding to 2 g/kg body weight, and blood was collected from the tail vein of mice at time points of 15 minutes, 30 minutes, 60 minutes, and 120 minutes. The glucose concentration of collected blood was measured by using a script-operation blood glucose sensor (ONETOUCH Ultra, Inverness Medical Ltd., U.K.).
# β-catenin = test: Western blot of β-catenin in adipose tissues of internal organs; format: in vivo, mice; details: PD vs HFD
# Description: as §3
# Dietary Obese Mice [8] = test: Fasting blood glucose and insulin concentration; format: in vivo; details: PD vs HFD group, 10 weeks
# Description: as §4
# Meanwhile, the glucose concentration of the blood plasma obtained during fasting which was collected from mice raised for 10 weeks was measured by using a biochemical automatic analyzer (Express Plus, Chiron Diagnostics Co., U.S.), and kit reagents for analysis were purchased from Bio-Clinical System (Korea).
# The insulin concentration of blood plasma obtained during fasting was measured by using a mouse insulin ELISA kit (Millipore Corporation, U.S.).
# Dietary Obese Mice [9] = test: Plasma lipid concentration (commercial measurement kit); format: in vivo; details: 10 weeks
# Description: as §4, §5
# In order to evaluate the concentrations of plasma cholesterol, neutral fat, and free fatty acids of experimental animals raised for ten weeks, a commercially available measurement kit (Bio Clinical System, Korea) was used to perform measurement by repeating 2 measurements, respectively.
# [10] = test system: IL-6, TNFα, MCP1, and leptin; test: Inflammatory cytokine concentration in blood (ELISA); format: in vivo, mice; details: PD vs HFD group, 10 weeks
# Description: as §4
# The concentrations of plasma IL-6, TNFα, MCP1, and leptin were measured by the ELISA method using the Milliplex map kit (Millipore Corporation, U.S.).
# Dietary Obese Mice [11] = test: Liver function indexes (ALT, AST activity) in blood plasma; format: in vivo; details: PD vs HFD group, 10 weeks
# Description: as §4, §5
compound,measurement,setting,value
"C=C1[C@H](O)C[C@@H]2C[C@H]1C2(C)C [pinocarveol, (1S,3R,5S)-6,6-dimethyl-2-methylenebicyclo[3,1,1]heptan-3-ol]",ACC gene expression,[1],significantly decreased
same,FAS gene expression,[1],significantly decreased
same,LPL gene expression,[1],significantly decreased
same,LXRα gene expression,[1],significantly decreased
same,SREBP gene expression,[1],significantly decreased
same,ACC gene expression,[1]; listed as PD,significantly decreased again
same,FAS gene expression,[1]; listed as PD,significantly decreased again
same,LPL gene expression,[1]; listed as PD,significantly decreased again
same,LXRα gene expression,[1]; listed as PD,significantly decreased again
same,SREBP gene expression,[1]; listed as PD,significantly decreased again
same,activation (p-AMPK/AMPK ratio) of AMPK,AMPK,significant increase
same,activation (p-AMPK/AMPK ratio) of AMPK,AMPK; listed as PD,significantly increased
same,decrease in cumulative body weight gain,Dietary Obese Mice [2]; PD (about 0.2% pinocarveol in HFD) vs HFD group,32%
same,decrease in food efficiency ratio (cumulative body weight gain / total diet intake),Dietary Obese Mice [2]; PD vs HFD group,32%
same,decrease in total visceral fat weight,Dietary Obese Mice [3]; PD vs HFD group,32%
same,"weights of epididymal fat, fat around the kidney, mesenteric fat, and retroperitoneal fat",Dietary Obese Mice [3]; PD vs HFD group,significantly reduced
same,effect of reducing body weight and visceral fat amount compared with control drugs,Dietary Obese Mice [3]; vs sibutramine and metformin diets,as much excellent effect of reducing body weight and visceral fat amount as commercially available anti-obesity drugs (sibutramine) and diabetes treatment drugs (metformin)
same,solubility in oil and ethanol,[4]; oil and ethanol,dissolve in oil and ethanol
same,solubility in water,[4]; water,does not dissolve
same,decrease in absolute liver weight,Dietary Obese Mice [5],30%
same,decrease in free fatty acid concentration of hepatic tissue,Dietary Obese Mice [5],65%
same,decrease in neutral fat concentration of hepatic tissue,Dietary Obese Mice [5],33%
same,decrease in total cholesterol concentration of hepatic tissue,Dietary Obese Mice [5],31%
same,C/EBPα gene expression,[6],significantly decreased
same,CD36 gene expression,[6],significantly decreased
same,FAS gene expression,[6],significantly decreased
same,PGC-1α gene expression,[6],significantly increased
same,PPARγ2 gene expression,[6],significantly decreased
same,UCP1 gene expression,[6],significantly increased
same,UCP3 gene expression,[6],significantly increased
same,leptin gene expression,[6],significantly decreased
same,C/EBPα gene expression,[6]; listed as PD,significantly decreased again
same,CD36 gene expression,[6]; listed as PD,significantly decreased again
same,FAS gene expression,[6]; listed as PD,significantly decreased again
same,PGC-1α gene expression,[6]; listed as PD,significantly increased again
same,PPARγ2 gene expression,[6]; listed as PD,significantly decreased again
same,UCP1 gene expression,[6]; listed as PD,significantly increased again
same,UCP3 gene expression,[6]; listed as PD,significantly increased again
same,leptin gene expression,[6]; listed as PD,significantly decreased again
same,blood glucose concentrations over time after sugar intake (OGTT),Dietary Obese Mice [7],decrease
same,reduction of area under the curve (AUC) of the glucose concentration (OGTT),Dietary Obese Mice [7],20%
same,protein expression amount of β-catenin,β-catenin,significant increase
same,protein expression amount of β-catenin,β-catenin; listed as PD,significantly increased
same,decrease in fasting blood glucose concentration,Dietary Obese Mice [8],21%
same,decrease in fasting blood insulin concentration,Dietary Obese Mice [8],50%
same,decrease in plasma free fatty acid concentration,Dietary Obese Mice [9]; PD vs HFD group,39%
same,decrease in plasma neutral fat concentration,Dietary Obese Mice [9]; PD vs HFD group,27%
same,decrease in plasma total cholesterol concentration,Dietary Obese Mice [9]; PD vs HFD group,16%
same,HDL-cholesterol concentration in blood,Dietary Obese Mice [9]; between the experimental groups,did not show any significant difference
same,decrease in plasma IL-6 concentration,[10],70%
same,decrease in plasma MCP1 concentration,[10],35%
same,decrease in plasma TNFα concentration,[10],28%
same,decrease in plasma leptin concentration,[10],40%
same,decrease in alanine aminotransferase (ALT) activity in blood plasma,Dietary Obese Mice [11],44% and 52%
same,decrease in aspartate aminotransferase (AST) activity in blood plasma,Dietary Obese Mice [11],32% and 34%
